Results from the supplement of paper PMC10307832.

Experiments:
Experiment in all cases: relative viability (nuclei count vs DMSO), 5 days (fraction); higher = more cells survive
[1] = compound: COc1cc2nc(N3CCCN(C)CC3)nc(NC3CCN(Cc4ccccc4)CC3)c2cc1OC + O=C(c1cc(Cc2n[nH]c(=O)c3ccccc23)ccc1F)N1CCN(C(=O)C2CC2)CC1 [Olaparib] (partner 8 µM)
Summary of the method: (§1)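 Relative viability is defined as nuclei in treated wells over nuclei in vehicle wells. Duplicate plates were run and medians reported. Lung cancer cell lines in 1536-well plates were dosed by pin tool one day after seeding, with one drug or with a fixed anchor-drug dose plus five library-drug doses (not always all listed) in √10 steps, and nuclei were counted after 5 days.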

AZD6482 + Palbociclib = compound: Cc1cc([C@@H](C)Nc2ccccc2C(=O)O)c2nc(N3CCOCC3)cc(=O)n2c1 [AZD6482] + CC(=O)c1c(C)c2cnc(Nc3ccc(N4CCNCC4)cn3)nc2n(C2CCCC2)c1=O [Palbociclib] (partner 0.5 µM)
Summary of the method: as §1

AZD6482 + Navitoclax = compound: Cc1cc([C@@H](C)Nc2ccccc2C(=O)O)c2nc(N3CCOCC3)cc(=O)n2c1 [AZD6482] + CC1(C)CCC(c2ccc(Cl)cc2)=C(CN2CCN(c3ccc(C(=O)NS(=O)(=O)c4ccc(N[C@H](CCN5CCOCC5)CSc5ccccc5)c(S(=O)(=O)C(F)(F)F)c4)cc3)CC2)C1 [Navitoclax] (partner 0.5 µM)
Summary of the method: as §1

AZD6482 + Lapatinib = compound: Cc1cc([C@@H](C)Nc2ccccc2C(=O)O)c2nc(N3CCOCC3)cc(=O)n2c1 [AZD6482] + CS(=O)(=O)CCNCc1ccc(-c2ccc3ncnc(Nc4ccc(OCc5cccc(F)c5)c(Cl)c4)c3c2)o1 [Lapatinib] (partner 2 µM)
Summary of the method: as §1

UMC-11
relative viability ([1]; first compound 0.2 µM): 0.38 | relative viability ([1]; first compound 0.6325 µM): 0.391 | relative viability ([1]; first compound 2 µM): 0.385 | relative viability ([1]; first compound 6.325 µM): 0.221 | relative viability (AZD6482 + Palbociclib; first compound 0.08 µM): 0.342 | relative viability (AZD6482 + Palbociclib; first compound 0.253 µM): 0.297 | relative viability (AZD6482 + Palbociclib; first compound 0.8 µM): 0.321 | relative viability (AZD6482 + Palbociclib; first compound 8 µM): 0.324 | relative viability (AZD6482 + Navitoclax; first compound 0.08 µM): 0.331 | relative viability (AZD6482 + Navitoclax; first compound 0.253 µM): 0.329 | relative viability (AZD6482 + Navitoclax; first compound 0.8 µM): 0.313 | relative viability (AZD6482 + Navitoclax; first compound 2.53 µM): 0.309 | relative viability (AZD6482 + Navitoclax; first compound 8 µM): 0.275 | relative viability (AZD6482 + Lapatinib; first compound 0.08 µM): 0.875 | relative viability (AZD6482 + Lapatinib; first compound 0.253 µM): 0.902 | relative viability (AZD6482 + Lapatinib; first compound 0.8 µM): 1.03 | relative viability (AZD6482 + Lapatinib; first compound 2.53 µM): 0.602 | relative viability (AZD6482 + Lapatinib; first compound 8 µM): 1.34
